Experimental data as given in patent publication US12396996B2, “Compounds, pharmaceutical compositions, and methods of their use in reversing cancer chemoresistance” (priority 2019, dated 2025).

How the values were obtained:
Format in all cases: cell-based, human
[1] = test system: patient-derived TMZ-resistant glioblastoma (GBM) cell line; experiment: Spheroid cell confluence, co-treatment with TMZ
Procedure: FIGS. 13A and 13B depict the response of a patient-derived TMZ-resistant glioblastoma (GBM) cell line to TMZ (Temozolomide). The cells were grown in suspension into spheroids after which they were treated with TMZ (100 uM), chaetocin (50 uM) or both (TMZ 100 uM, chaetocin 50 uM were administered at the same time). Cell confluence, an assay for spheroid size, was measured. The top graph depicts the response of the TMZ-resistant cell line to TMZ (100 uM) alone. Bottom graph depicts the response of the TMZ-resistant cell line to single agent and double agent treatments.
FIG. 14 depicts the response of a patient-derived TMZ-resistant glioblastoma (GBM) cell line to TMZ (Temozolomide). The cells were grown in suspension into spheroids after which they were treated with TMZ (50, 100, 200, 400 μM), chaetocin (50 uM) or both (TMZ at 50, 100, 200, or 400 μM together with chaetocin at 50 uM). […] Cell confluence, an assay for spheroid size, was measured.
A short exposure to chaetocin is sufficient to cause an epigenetic change, reprogramming mesenchymal, TIC-rich cancer cells into an epithelial fate while sensitizing them to chemotherapy. […] Cell confluence, an assay for spheroid size, was measured to determine if cell growth was inhibited (flat curve) or spheroid sizes were reduced (indicator of cell death and spheroid shrinkage). […]

[2] = test system: MDA-MB-231 cells; experiment: Cleaved caspase 3 apoptosis assay; details: chaetocin 0, 100, 200 nM; compared with MDA-MB-468
Source text: (§1) FIGS. 1A-1K are a series of figures showing sensitivity of tumor initiating cell (TICs)-rich, chemoresistant breast cancer and clear cell renal cell carcinoma cell lines to chaetocin compared to non-cancerous epithelial or isogenic cancerous epithelial, TIC-deplete, chemosensitive breast cancer and clear cell renal cell carcinoma cell lines. […] The data presented in FIGS. 1A and 1B indicate that at lower doses especially chaetocin specifically induces apoptosis of mesenchymal, TIC-rich, chemotherapy-resistant breast cancer cell lines compared to the epithelial, non-TIC-rich and chemotherapy-responsive cell-line.
(§2) To determine whether constitutive heterochromatin proteins are similarly required for the development of […] in cancer, the efficacy of a heterochromatin inhibitor, which selectively represses the activities of two proteins critical for constitutive heterochromatin formation, namely suppressor of variegation 3-9 homolog 1 (Suv39H1) and suppressor of variegation 3-9 homolog 2 (Suv39H2), was tested in human cells, using 2-D, spheroid and tumorsphere assays. To determine the sensitivity of well-established mesenchymal and epithelial cancer cells to a heterochromatin inhibitor, chaetocin, the degree of apoptotic cell death was measured in two cancer cell lines, MDA-MB-231 and MDA-MB-468. […]

[3] = test system: MDA-MB-468 cells; experiment: Cleaved caspase 3 apoptosis assay; details: chaetocin 0, 400, 800 nM; compared with MDA-MB-231
Source text: as §1, §2

[4] = test system: HMLE-TWIST cells; experiment: CD44/CD24 FACS analysis after chaetocin pulse and washout
Procedure: Cultured mesenchymal, TIC-rich HMLE-TWIST cells were treated with increasing concentrations of chaetocin for 2 days, washed and then incubated in chaetocin-free media for two days. CD44/CD24 FACS analyses were performed either immediately or two days after chaetocin removal.
CD44/CD24 FACS analyses either were performed either immediately or 6 days after chaetocin removal.
To determine whether a short pulse of the Suv39H1/H2 inhibitor, chaetocin, is sufficient to bring about an epigenetic change, cultured HMLE-TWIST cells (also referred to as ‘HMLE-TWIST TICs’ or ‘TICs’) were exposed to different doses of chaetocin for two days, followed by washout, and replacement with regular media. Cells were tracked for their phenotypic fate (e.g., CD44/CD24 marker expression) for another two or 6 days in chaetocin-free media. In this cell line, high CD44 and low CD24 expression indicate TIC cell populations. Cells that express CD24 are considered non-TICs. […] Next, to determine whether the epigenetic change persists for periods longer than two days, a separate experiment was performed in which HMLE-TWIST cells were treated with chaetocin for two days, followed by FACS analysis of CD24/CD44 expression either immediately after or 6 days after, as schematized in the top panel of FIG. 3M.

[5] = test system: HMLE-SNAIL cells; experiment: CD44/CD24 FACS analysis; details: 1 μM for two days
Source text: The y- and the x-axes represent fluorescence intensity of CD24 and CD44 cell surface markers, respectively. In this cell line, high CD44 and low CD24 expression indicate TIC cell populations. Cells that express CD24 are considered non-TICs.
Cell surface markers can be used to identify mesenchymal, TIC cells. In breast cancer, the presence of CD44 and absence of CD24 markers are indicators of TICs. Specifically, cells expressing high levels of CD44 and no expression of CD24 are considered TICs, whereas cells expressing CD24 are considered non-TICs. HMLE cells display these cell surface markers upon overexpression of SNAIL or TWIST, which turns on the EMT transcriptional program and promotes a mesenchymal TIC state in cancer cells. To determine whether chaetocin treatment alters the mesenchymal phenotype of TICs, these markers were used to track the fate of HMLE-SNAIL cells following chaetocin treatment (1 μM) using fluorescence-activated cell sorting (FACS) analysis. FIGS. 3A-3B show a heat map plot of FACS results under control conditions (FIG. 3A) and following chaetocin treatment (FIG. 3B). The y-axis corresponds to CD24 fluorescence intensity and the x-axis corresponds to CD44 fluorescence intensity.

In the case of `CN1C(=O)[C@@]23C[C@]4([C@]56C[C@@]78SS[C@](CO)(C(=O)N7[C@H]5Nc5ccccc56)N(C)C8=O)c5ccccc5N[C@@H]4N2C(=O)[C@@]1(CO)SS3` [chaetocin], the “sensitization to TMZ (cell confluence / spheroid size)” value ([1]; chaetocin 50 uM with TMZ 100 uM added at the same time) is reported as “sensitization of the TMZ-resistant cell line to TMZ treatment”, the “sensitization to TMZ (cell confluence / spheroid size)” value ([1]; chaetocin 50 uM with TMZ 50, 100, 200, 400 uM added at the same time) is reported as “sensitizes the cells to TMZ treatment versus single treatment with TMZ or chaetocin” and the “apoptosis (cleaved caspase 3) sensitivity” value [2] is reported as “more sensitive to chaetocin compared to the non-TIC, MDA-MB-468 cells”. The “apoptosis (cleaved caspase 3) sensitivity” value [3] was “increased sensitivity to chaetocin as compared to MDA-MB-231 cells”, the “CD44/CD24 phenotype (TIC to non-TIC)” value ([4]; 0.1, 0.15, 0.2, 0.5 μM for two days, immediately after treatment) was “converts TICs into non-TICs in a dose dependent manner” and the “persistence of TIC to non-TIC conversion” value ([4]; two or 6 days in chaetocin-free media) was “persist for up to six days after chaetocin removal”. For the same compound, the “CD44/CD24 phenotype (TIC to non-TIC)” value [5] was “reprograms TICs into a non-TIC phenotype”.
